Reference: PubChem BioAssay (NCI)
Several values for one entry are separate records, joined by “and”; a condition that tells them apart may be missing. Equal values may be shown once.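 How tested: cells in 96-well plates exposed to compound for 48 hours at five concentrations. GI50 marks 50% less growth. TGI: concentration producing complete growth inhibition.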

Legend:
Assay in all cases: inhibition of tumour cell growth, NCI panel, 48 h
A498 renal = test system: A498 renal
BT-549 breast = test system: BT-549 breast
COLO 205 colon = test system: COLO 205 colon
EKVX NSCLC = test system: EKVX NSCLC
NCI-H23 lung = test system: NCI-H23 lung
SF-268 CNS = test system: SF-268 CNS
SF-539 CNS = test system: SF-539 CNS
SN12C renal = test system: SN12C renal
SNB-19 CNS = test system: SNB-19 CNS
UACC-257 melanoma = test system: UACC-257 melanoma

| SMILES | GI50 (A498 renal) | TGI (A498 renal) | GI50 (BT-549 breast) [nM] | TGI (BT-549 breast) [µM] | GI50 (COLO 205 colon) | TGI (COLO 205 colon) [µM] | GI50 (EKVX NSCLC) [nM] | TGI (EKVX NSCLC) [µM] | GI50 (NCI-H23 lung) | TGI (NCI-H23 lung) | GI50 (SF-268 CNS) | TGI (SF-268 CNS) | GI50 (SF-539 CNS) | TGI (SF-539 CNS) | GI50 (SN12C renal) | TGI (SN12C renal) [µM] | GI50 (SNB-19 CNS) | TGI (SNB-19 CNS) | GI50 (UACC-257 melanoma) | TGI (UACC-257 melanoma) [µM] |
| --- | --- | --- | --- | --- | --- | --- | --- | --- | --- | --- | --- | --- | --- | --- | --- | --- | --- | --- | --- | --- |
| C=C1C(=O)O[C@H]2[C@H]1CC/C(Cn1cc(Cn3ccc4cc(Cl)ccc43)nn1)=C\CC[C@@]1(C)O[C@@H]21 | 3.39 µM | 11.7 µM | 1610 | 3.3 | 1690 nM | 3.5 | 1730 | 3.78 | 1990 nM | 4.46 µM | 1650 nM | 3.13 µM | 1570 nM | 2.97 µM | 1.5 µM | 3.2 | 1.97 µM | 4.49 µM | 1700 nM | 3.61 |
| Cc1c(N(C(=O)c2cc(-c3cc(Cl)ccc3C(=O)N3Cc4ccccc4C[C@H]3CN3CCOCC3)n(C)c2C)c2ccc(O)cc2)cc(C#N)n1C | 23.2 µM | 61.6 µM | 6410 | 26.5 | 17100 nM | 35.2 | 48400 | > 100 | 35600 nM | > 100 µM | 20500 nM | > 100 µM | 20600 nM | > 100 µM | 19.5 µM | > 100 | 13.8 µM | > 100 µM | 20100 nM | > 100 |
| OCC1OC(O)C(N=Cc2ccc3c(c2)OCO3)C(O)C1O (stereo not given) |  | > 100 µM |  | > 100 |  | > 100 |  | > 100 |  | > 100 µM |  | > 100 µM |  | > 100 µM |  | > 100 |  | > 100 µM |  | > 100 |
| CCC[C@H](Nc1nc(-c2ccc(NC(=O)NCC)c(OC)c2)ncc1C)c1cccnc1 | 0.0322 µM | 0.864 µM | 41.3 | 26 | 28.2 nM | 0.0736 | 62.1 | > 100 | 44.4 nM | 6.93 µM | 53.4 nM | 14.7 µM | 33.4 nM | 3.87 µM | 0.0486 µM | 20.5 | 0.0441 µM | > 84.8 µM | 820 nM | 28.8 |
| CC1=Cc2cc3[n-]c(cc4nc(cc5[n-]c(cc1n2)c(C)c5CCC(=O)O)C(CCC(=O)O)=C4C)cc3C.[Cu+2] | > 1 µM and 16.2 µM | > 1 µM and 36.5 µM | 14500 | 27.8 | > 1000 nM and 40700 nM | > 100 | > 66400 | > 100 | > 1000 nM and 24900 nM | > 1 µM and 52.8 µM | 10800 nM and > 1000 nM | 36.1 µM and > 1 µM | < 1000 nM and 3520 nM | > 1 µM and 11.6 µM | > 1 µM and 57.7 µM | > 100 | > 1 µM and 11.9 µM | > 1 µM and 32.9 µM | > 1000 nM and 40800 nM | > 85.4 |
| O=S(=O)(NCCNc1cc(-c2cn(-c3ccccc3)nc2-c2cccc(O)c2)ccn1)c1ccc(F)cc1 | 2.69 µM | 9.26 µM | 2030 | 7.68 | 1910 nM | 4.34 | 2590 | 20.3 | 2660 nM | 10.8 µM | 2420 nM | 8.93 µM | 1710 nM | 3.95 µM | 3.69 µM | 35.1 | 3.72 µM | 31.7 µM | 2850 nM | 7.14 |
